Measured values taken from patent publication US20080219975A1, “VEGFR3 INHIBITORS” (priority 2006, published 2008).
pIC50: −log10 of the molar value.

Tests used:
[1] = system: VEGFR1 mediated VEGF signaling; experiment: VEGF stimulation of Erk1/2 in HMVEC-d cells; format: cell-based, human; details: 5 μM, 10 ng/ml VEGF (FIG. 2)
Method: (§1) HMVEC-d cells (Cambrex) were cultured at 37 C in 5% CO2 in appropriate serum containing medium (Cambrex) on fibronectin coated 12-well plates (BD Biocoat, Becton Dickinson) for 4 days. Cells were then starved for 16 hours in the same medium as before, but lacking serum and containing SITE+3 (Invitrogen) instead. Cells were then preincubated with DMSO at 0.2% (the solvent) or 5 uM Compound 2 for 60 minutes and then either 10 ng/ml VEGF or 100 ng/ml VEGF-C (R&D systems) was added to the cells. Before, or 10 and 30 minutes after stimulation, the medium was removed, cells were rinsed with ice-cold PBS containing 0.1 mM sodiumorthovanadate and lysed in M-PER buffer (PIERCE) containing 0.1% SDS, and 1× phosphatase and protease inhibitors (HALT, PIERCE). Cells were scraped off the plates and incubated in lysis buffer for 30 minutes on ice and then centrifuged at 4° C. for 10 min at 16000×g. Lysates were quantified using the BCA reagent according to the manufacturer's instructions (PIERCE), and […] of total protein was loaded on SDS-polyacrylamide gels (NUPAGE, Invitrogen). Electrophoresis and blotting onto PVDF membranes was all performed using reagents from the NUPAGE system, according to the manufacturer's instructions. […]

[2] = system: VEGFR3 dependent VEGF-C stimulation of Erk1/2; experiment: Inhibition of Erk activation induced by VEGF-C in HMVEC-d cells; format: cell-based, human; details: 5 μM, 100 ng/ml VEGF-C (FIG. 2)
Method: as §1

Xenopus tadpoles = experiment: VEGFR3 in vivo Xenopus assay (lymphangiogenesis, LEC migration); details: for % Relative Area 2-3: LECs in area 2-3 relative to vehicle control; for % Relative Max Migration: furthest LEC migration from PCV relative to vehicle control; for % embryos with reduced migration: stages 35-36 tadpoles
Method: Xenopus tadpoles were used as a model (Ny et al Nature Medicine 11: 998-1004 (2005)) to analyze the effects of Compound 2 on lymphangiogenesis. The compound was administered daily in a dose dependent manner, with vehicle controls, to the medium of the Xenopus tadpoles starting at stage 26-28, i.e., before the formation of both blood and lymphatic vessels. The effects of the compound was monitored by “live analysis”, i.e. live embryos were examined 4 days later for evidence of lymph-vascular defects by trained observers. As an additional means of confirming the results, in a limited number of experiments, tadpoles were fixed at stage 35-36 and in situ hybridizations for Prox1 were performed to assess migration of lymphatic endothelial cells (LECs) from the posterior cardinal vein (PCV) to their dorsal endpoint, this reflecting an essential step in lymphangiogenesis. Under normal circumstances, LECs arise from the region of the PCV, accumulate there, and during the study period, they migrate dorsally to defined “areas” (Area 1 to Area 2 and Area 3), where they then further migrate rostrally and caudally to form the lymphatic vasculature in the tail and trunk. Defects in migration of the LECs from the PCV was quantified by determining the maximal migration of the cells, and by counting the number of cells in these different regions in the tail.

VEGFR3 [3] = biological target: T1, VEGFR3 (Homo sapiens, UniProt P35916); experiment: Inhibition of VEGF-C induced VEGFR-3 phosphorylation in PAE cells stably expressing human VEGFR-3; format: cell-based; set-up: expressed in transfected cells; host or cells: porcine aortic endothelial (PAE) cells; details: PAE cells expressing human VEGFR-3, 100 ng/ml VEGF-C, Western blot (FIG. 1)
T1 sequence (P35916 25-1363): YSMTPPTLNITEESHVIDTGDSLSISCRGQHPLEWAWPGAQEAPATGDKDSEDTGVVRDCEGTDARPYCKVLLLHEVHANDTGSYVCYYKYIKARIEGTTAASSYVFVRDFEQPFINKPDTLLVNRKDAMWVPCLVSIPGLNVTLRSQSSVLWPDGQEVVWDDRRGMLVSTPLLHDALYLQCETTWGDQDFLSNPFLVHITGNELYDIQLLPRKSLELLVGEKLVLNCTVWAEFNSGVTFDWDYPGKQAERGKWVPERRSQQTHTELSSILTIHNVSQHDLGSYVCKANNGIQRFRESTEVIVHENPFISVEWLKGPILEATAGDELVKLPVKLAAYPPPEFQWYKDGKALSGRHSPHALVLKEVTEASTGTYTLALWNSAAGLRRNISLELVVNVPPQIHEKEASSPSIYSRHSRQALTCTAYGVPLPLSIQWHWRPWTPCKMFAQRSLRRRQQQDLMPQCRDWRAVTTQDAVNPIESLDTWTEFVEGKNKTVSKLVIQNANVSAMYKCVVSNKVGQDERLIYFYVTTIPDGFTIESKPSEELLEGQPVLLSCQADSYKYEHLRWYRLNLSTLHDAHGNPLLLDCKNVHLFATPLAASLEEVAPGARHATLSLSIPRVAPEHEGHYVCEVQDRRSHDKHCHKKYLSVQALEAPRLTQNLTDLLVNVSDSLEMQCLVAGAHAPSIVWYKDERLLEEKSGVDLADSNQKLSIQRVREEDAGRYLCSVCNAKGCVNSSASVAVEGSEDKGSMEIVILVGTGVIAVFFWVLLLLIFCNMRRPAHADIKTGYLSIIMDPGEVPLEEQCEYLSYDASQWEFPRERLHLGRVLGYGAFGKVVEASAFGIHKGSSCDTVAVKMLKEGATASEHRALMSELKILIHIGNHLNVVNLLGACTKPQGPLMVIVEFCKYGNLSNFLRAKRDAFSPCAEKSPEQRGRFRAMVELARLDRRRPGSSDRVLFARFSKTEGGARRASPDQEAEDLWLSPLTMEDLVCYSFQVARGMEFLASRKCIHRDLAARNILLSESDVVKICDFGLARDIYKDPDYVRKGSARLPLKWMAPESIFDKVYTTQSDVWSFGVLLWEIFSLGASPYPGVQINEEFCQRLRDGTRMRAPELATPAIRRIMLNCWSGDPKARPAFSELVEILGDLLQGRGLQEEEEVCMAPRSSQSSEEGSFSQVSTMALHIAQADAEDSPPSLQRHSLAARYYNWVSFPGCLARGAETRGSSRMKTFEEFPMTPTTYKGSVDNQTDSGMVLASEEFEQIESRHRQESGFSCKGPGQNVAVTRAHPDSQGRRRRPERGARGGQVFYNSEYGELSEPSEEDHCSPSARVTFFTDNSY
Method: For this assay, porcine aortic endothelial (PAE) cells stably expressing human VEGFR-3 were grown to confluency on 10 cm dishes. The cells were serum starved overnight and the media replaced with fresh serum-free media. […] This was followed by the addition of VEGF-C to a final concentration of 100 ng/ml and the cells incubated for 10 min at 37° C., after which they were washed with ice-cold PBS and then lysed. Cell lysates containing protease inhibitors were subjected to immunoprecipitation with an antibody specific for VEGFR-3 and the immunoprecipitates separated by SDS-PAGE. Proteins were transferred to a nitrocellulose membrane, and then probed first with a phospho-tyrosine antibody and then a VEGFR-3 antibody.

VEGFR3 [4] = biological target: T1, VEGFR3; experiment: VEGFR3 in vitro kinase assay; format: biochemical; details: 10 μM ATP
Method: The VEGFR3 kinase reaction was performed at 30° C. for 10 minutes in a 96-well microtiterplate. The 25 μl reaction volume contained 8 mM MOPS pH 7, 200 μM EDTA, 10 mM MgAc, 10 μM unlabeled ATP, […] AT33P, 500 μM JAK3-tide (Ac-GGEEEEYFELVKKKK-NH2), 25 ng VEGFR3 and 2% compound in 100% DMSO.
The reaction was stopped by adding 5 μl of a 3% phosphoric acid solution. 10 μl of the reaction mixture was then spotted onto a Filtermat P30 filter (Wallac) and washed 3 times for 5 min. in 0.75% phosphoric acid and 1 time for 2 min. in methanol prior to transferring to a sealable plastic bag containing 4 ml of scintillation liquid and reading in a scintillation counter.

SMILES: COc1cc2ncnc3c2cc1OCCCCCCOc1c(Cl)cccc1N3 [4,6-ethanediylidene-19H-pyrimido[4,5-b][6,13,1]benzodioxaazacyclo-pentadecine, 15-chloro-8,9,10,11,12,13-hexahydro-20-methoxy-]
- melting point: 255.5 to 260.2 °C

SMILES: COc1cc2ncnc3c2cc1OCCCCCN(C)Cc1ccc(Br)cc1N3 [Compound 2, 4,6-ethanediylidenepyrimido[4,5-b][6,1,12]benzoxadiazacyclo-pentadecine, 17-bromo-8,9,10,11,12,13,14,19-octahydro-20-methoxy-13-methyl-]
- VEGF stimulation of Erk1/2 [1]: did not interfere
- phosphorylation of Erk1/2 by VEGF-C [2]: prevented
- % Relative Area 2-3 (Xenopus tadpoles; 0.3125 μM): 37 ± 20%
- % Relative Max Migration (Xenopus tadpoles; 0.3125 μM): 73 ± 22%
- % embryos with reduced migration (Xenopus tadpoles; 0.3125 μM): 57%
- % Relative Area 2-3 (Xenopus tadpoles; 1.25 μM): 20 ± 8%
- % Relative Max Migration (Xenopus tadpoles; 1.25 μM): 47 ± 5%
- % embryos with reduced migration (Xenopus tadpoles; 1.25 μM): 63%
- % Relative Area 2-3 (Xenopus tadpoles; 5 μM): 123 ± 32%
- % Relative Max Migration (Xenopus tadpoles; 5 μM): 121 ± 3%
- % embryos with reduced migration (Xenopus tadpoles; 5 μM): 40%
- % Relative Area 2-3 (Xenopus tadpoles; 20 μM): 19 ± 8%
- % Relative Max Migration (Xenopus tadpoles; 20 μM): 35 ± 1%
- tadpoles that developed edema (Xenopus tadpoles; 20 uM, live screening): 10%
- % embryos with reduced migration (Xenopus tadpoles; 20 μM): 60%
- % Relative Area 2-3 (Xenopus tadpoles; 80 μM): 56 ± 15%
- % Relative Max Migration (Xenopus tadpoles; 80 μM): 67 ± 21%
- % embryos with reduced migration (Xenopus tadpoles; 80 μM): 80%
- tadpoles with hemorrhages (Xenopus tadpoles; concentrations >50 uM, live screening): 30%
- effects in Xenopus tadpole model (Xenopus tadpoles; in vivo): phenocopy the effects of VEGF-C knockout
- Lymphatic Endothelial Cell (LEC) migration in tadpoles (Xenopus tadpoles; stage 35-36 tadpoles): dose dependently inhibits
- VEGF-C induced VEGFR-3 phosphorylation (VEGFR3 [3]): dose dependent reduction
- pIC50 (VEGFR3 [4]): 7.74
